Columns and labels:
Salmonella typhimurium = test: Selectivity of AMP-functionalized biosensor, pathogenic E. coli relative to Salmonella; format: binding; details: 10^7 CFU/mL
Experimental: (§1) As a next step, the selectivity of the AMP-functionalized biosensors toward various bacterial species was determined. Specifically, the binding behavior of AMPs was probed toward: 1) Gram-negative pathogenic E. coli O157:H7, 2) the non-pathogenic E. coli strain ATCC 35218, 3) Gram-negative pathogenic Salmonella typhimurium, and Listeria monocytogenes, a Gram-positive pathogen. Collectively, these studies elucidate the matrix of selectivity as it depends on Gram-negative vs. Gram-positive species, and pathogenic vs. non-pathogenic strains. […]
(§2) Stock solutions of propidium iodide (PI), nucleic acid stain (Molecular probes, Eugene, Oreg.) were made from solid form by dissolving PI (MW=668.4) in deionized water at 1 mg/mL (1.5 mM) and stored at 4° C., protected from light. […] The binding pattern of the different bacterial cells was imaged using a Zeiss axiovert inverted microscope and recorded with a Zeiss axiocam digital camera. Surface density of the bound bacterial cells was analyzed and plotted using imageJ software from NIH.
(§3) Dielectric property changes due to AMP-bacteria interactions were probed using a Fast-Fourier Transform (FFT) spectrum analyzer. […] For real-time measurements, the impedance vs. time data was recorded while buffer solutions or different dilutions of bacterial solutions flowed through the microfluidic channel. […]

pathogenic E. coli cells = test: Real-time detection in microfluidic flow cell, impedance response; format: binding; details: flow rate 5 μL/min
Experimental: To simulate the use of the AMP microelectrodes in everyday applications, such as direct water sampling, the biosensor response tested to perform in real time, as shown in FIG. 8. First, a microfluidic cell was bonded to the interdigitated biosensor chip (FIG. 8A), such that the electrodes were perpendicular to the direction of the sample flow (FIG. 8B). Next, fluid was injected using a syringe pump connected to the inlet port, and allowed to flow through to the outlet port, at a flow rate of 100 μL/min. The flow cell was first flushed with buffer to establish a baseline. Various dilutions (10^4-10^7 CFU/mL) of pathogenic E. coli cells in PBS were then injected to the channel at a reduced flow rate of 5 μL/min for 30 min. […] Simultaneously, the impedance response was continuously monitored during the sample flow-through process (FIG. 8D). […] This difference between detection in flowing and static water sample has also been reported in fluorescent based assays. This difference is attributed to the opposing effects of shear and mixing on the binding kinetics.
Interdigitated capacitive electrodes were microfabricated on 4″ p-type silicon wafers (boron-doped, <100>, 10-16 Ω-cm, 550 μm thick). A 1 μm thick silicon dioxide layer was deposited on the wafer by plasma enhanced chemical vapor deposition (PECVD) to form electrical insulation between the Si substrate and the capacitive electrodes. S1813 photoresist was patterned using photolithography, followed by electron-beam evaporation of 10 nm Ti and 300 nm Au under high vacuum conditions. The titanium layer helps to provide adhesion of the Au to the SiO2. The IMA was then finally developed by lift-off patterning of the metallic layer in acetone with ultrasonic activation. […]
as §3

Listeria monocytogenes = test: Selectivity of AMP-functionalized biosensor (impedance at 10 Hz, fluorescent microscopy), Gram-negative pathogens relative to Listeria; format: binding; details: all 10^7 CFU/mL
Experimental: as §1, §2, §3

E. coli O157:H7 cells = test: Impedance spectroscopy of magainin-functionalized interdigitated microelectrode array, sensitivity measurements; format: binding; details: E. coli O157:H7 10^7 CFU/mL; response at 10 Hz
Experimental: FIG. 2 schematically outlines the sensing platform. AMPs are first immobilized on microfabricated interdigitated gold electrodes, anode 10 and cathode 12 (FIG. 2A). Magainin I was acquired with an additional cysteine residue at the C-terminus (FIG. 2B), allowing for facile and site specific covalent attachment to the gold electrodes. Next, heat-killed bacterial cells were injected and incubated with the AMP-modified electrodes. If the bacteria are recognized by the AMPs, binding will occur (FIG. 2C), leading to dielectric property changes which can be monitored via a spectrum analyzer. The impedance was measured over a frequency range of 10 Hz to 100 kHz.
Sensitivity of microbial detection is a key determinant for utility of the biosensor. To this end, the sensitivity of the magainin-functionalized microelectrode array in detecting bacterial cells was determined using impedance spectroscopy. […] A “blank” device with no immobilized AMPs was also tested for comparison. […] As the frequency increases, the contribution to the impedance from the bacterial cells decreases, leaving only the dielectric relaxation of small dipoles including water molecules in the buffer solution to affect the measured impedance. FIG. 3B depicts the impedance change at the fixed frequency of 10 Hz. […]

[1] = test system: methicillin resistant strains of S. aureus; details: cited from earlier work
Helicobacter pylori = details: cited from earlier work
Staphylococcus aureus = details: cited from earlier work
Escherichia coli = details: cited from earlier work
[2] = test system: E. coli O157:H7 bacterial cell; test: Single bacterium detection on graphene sensors functionalized with antimicrobial peptide, simultaneous resistance and optical data; format: binding; details: compared to non-functionalized graphene
Source text: Simultaneous collection of electrical and fluorescence data from the graphene sensors in the presence of fluorescently labeled E. coli cells clearly indicate that the change in the resistance recorded corresponds to the binding and unbinding of the bacterial cell from the graphene surface. The resistance of the graphene sensor remains at the baseline value until the bacterial cell diffuses to the sensor surface and drops down by approximately 0.6 percentage of the original, once the bacterial cell binds to the graphene surface.
The resistance of the sensor decreases from the baseline value up on the binding of the negatively charged bacterial cell and returns back to the initial value up on unbinding, indicating a p-type behavior of the graphene transducer. […] In order to determine the effect of the immobilized AMPs on the binding/unbinding properties simultaneous resistance and optical data were recorded on graphene sensors functionalized with antimicrobial peptides. […]
Electrical measurements for the detection of single bacteria binding measurements were performed with a lock-in detection system using Stanford Research Systems 810 DSP lock-in amplifier. […] The resistance of the graphene sensor was monitored continuously in the presence of analyte sample of various dilutions of bacterial cells. […]

| Substance | response for pathogenic E. coli relative to Salmonella (Salmonella typhimurium) | time to measurable response relative to the control sample, all samples (pathogenic E. coli cells; 10^4-10^7 CFU/mL in PBS) | time to saturation of responses (pathogenic E. coli cells; 10^4-10^7 CFU/mL in PBS) | time to response, highest concentration sample (pathogenic E. coli cells) | impedance difference, pathogenic Gram-negative E. coli and Salmonella relative to Gram-positive Listeria (Listeria monocytogenes) | response of the biosensor towards target cells with increasing concentration of immobilized magainin (E. coli O157:H7 cells) | antimicrobial activity [1] | MIC (Helicobacter pylori) | MIC (Staphylococcus aureus) | MIC (Escherichia coli) | effect of immobilized peptide on unbinding of bacterial cells [2] |
| --- | --- | --- | --- | --- | --- | --- | --- | --- | --- | --- | --- |
| GIGKFLHSAGKFGKAFVGEIMKS [magainin I] | slightly larger response | ≤ 5 min | ca. 20 min | ≤ 30 s | two | increase monotonically |  |  |  |  |  |
| Odorranin-HP [O-HP] |  |  |  |  |  |  | exert antimicrobial activity | 20 µg/mL | 5 µg/mL | 30 µg/mL | slows the unbinding kinetics |

Source: patent publication US9029168B2, “Use and making of biosensors utilizing antimicrobial peptides for highly sensitive biological monitoring” (priority 2010, dated 2015)
